From patent US9661854B2, “Molecules having pesticidal utility, and intermediates, compositions, and processes, related thereto” (Dow AgroSciences LLC, priority 2015, dated 2017)

Assays:
[1] = test system: Beet Armyworm (Spodoptera exigua, LAPHEG); assay: Bioassay on Beet Armyworm (BAW), 128-well diet tray assay; assay type: in vivo; conditions: 168 h, 50 μg/cm^2 on artificial diet, second instar larvae, 25° C., five to seven days, average of eight wells, read-out: BAW % Control (or Mortality) rating
Description: (§1) Example A: Bioassays on Beet Armyworm (Spodoptera exigua, LAPHEG) (“BAW”) and Cabbage Looper (Trichoplusia ni, TRIPNI) (“CL”)
(§2) Certain molecules disclosed in this document were tested against BAW and CL using procedures described in the following examples. In the reporting of the results, the “BAW & CL Rating Table” was used (See Table Section).
Bioassays on BAW were conducted using a 128-well diet tray assay. One to five second instar BAW larvae were placed in each well (3 mL) of the diet tray that had been previously filled with 1 mL of artificial diet to which 50 μg/cm^2 of the test molecule (dissolved in 50 μL of 90:10 acetone-water mixture) had been applied (to each of eight wells) and then allowed to dry. Trays were covered with a clear self-adhesive cover, vented to allow gas exchange, and held at 25° C., 14:10 light-dark for five to seven days. Percent mortality was recorded for the larvae in each well; activity in the eight wells was then averaged. The results are indicated in the table entitled “Table ABC: Biological Results” (See Table Section).

[2] = test system: Cabbage Looper (Trichoplusia ni, TRIPNI); assay: Bioassay on Cabbage Looper (CL), 128-well diet tray assay; assay type: in vivo; conditions: 168 h, 50 μg/cm^2 on artificial diet, second instar larvae, 25° C., five to seven days, average of eight wells, read-out: CL % Control (or Mortality) rating
Description: as §1, §2
Bioassays on CL were conducted using a 128-well diet tray assay. One to five second instar CL larvae were placed in each well (3 mL) of the diet tray that had been previously filled with 1 mL of artificial diet to which 50 μg/cm^2 of the test molecule (dissolved in 50 μL of 90:10 acetone-water mixture) had been applied (to each of eight wells) and then allowed to dry. Trays were covered with a clear self-adhesive cover, vented to allow gas exchange, and held at 25° C., 14:10 light-dark for five to seven days. Percent mortality was recorded for the larvae in each well; activity in the eight wells was then averaged. The results are indicated in the table entitled “Table ABC: Biological Results” (See Table Section).

SMILES	mortality at 50 µg/cm2 [1]	mortality at 50 µg/cm2 [2]
Cc1cc(N2C(=O)CS/C2=N\C(=O)Nc2ccc(/C=C/c3ncn(-c4ccc(OC(F)(F)F)cc4)n3)cc2)c(C(C)C)cc1F [F47, 1-((Z)-3-(4-Fluoro-2-isopropyl-5-methylphenyl)-4-oxothiazolidin-2-ylidene)-3-(4-((E)-2-(1-(4-(trifluoromethoxy)phenyl)-1H-1,2,4-triazol-3-yl)vinyl)phenyl)urea]	50 to 100%	50 to 100%
CCC(C)Oc1ccc(C)cc1N1C(=O)CS/C1=N\C(=O)Nc1ccc(/C=C/c2ncn(-c3ccc(OC(F)(F)F)cc3)n2)cc1 (centres unmarked) [F48, 1-((Z)-3-(2-(sec-Butoxy)-5-methylphenyl)-4-oxothiazolidin-2-ylidene)-3-(4-((E)-2-(1-(4-(trifluoromethoxy)phenyl)-1H-1,2,4-triazol-3-yl)vinyl)phenyl)urea]	50 to 100%	50 to 100%
Cc1ccc(OC(C)C)c(N2C(=O)CS/C2=N\C(=O)Nc2ccc(/C=C/c3ncn(-c4ccc(OC(F)(F)F)cc4)n3)cc2)c1 [F49, 1-((Z)-3-(2-Isopropoxy-5-methylphenyl)-4-oxothiazolidin-2-ylidene)-3-(4-((E)-2-(1-(4-(trifluoromethoxy)phenyl)-1H-1,2,4-triazol-3-yl)vinyl)phenyl)urea]	50 to 100%	50 to 100%
Cc1ccc(OC(F)(F)F)c(N2C(=O)CS/C2=N\C(=O)Nc2ccc(/C=C/c3ncn(-c4ccc(OC(F)(F)F)cc4)n3)cc2)c1 [F50, 1-((Z)-3-(5-Methyl-2-(trifluoromethoxy)phenyl)-4-oxothiazolidin-2-ylidene)-3-(4-((E)-2-(1-(4-(trifluoromethoxy)phenyl)-1H-1,2,4-triazol-3-yl)vinyl)phenyl)urea]	50 to 100%	50 to 100%
Cc1ccc(OCC(F)(F)F)c(N2C(=O)CS/C2=N\C(=O)Nc2ccc(/C=C/c3ncn(-c4ccc(OC(F)(F)F)cc4)n3)cc2)c1 [F51, 1-((Z)-3-(5-Methyl-2-(2,2,2-trifluoroethoxy)phenyl)-4-oxothiazolidin-2-ylidene)-3-(4-((E)-2-(1-(4-(trifluoromethoxy)phenyl)-1H-1,2,4-triazol-3-yl)vinyl)phenyl)urea]	50 to 100%	50 to 100%
Cc1ccc(OC(C)(C)C)c(N2C(=O)CS/C2=N\C(=O)Nc2ccc(/C=C/c3ncn(-c4ccc(OC(F)(F)F)cc4)n3)cc2)c1 [F52, 1-((Z)-3-(2-(tert-Butoxy)-5-methylphenyl)-4-oxothiazolidin-2-ylidene)-3-(4-((E)-2-(1-(4-(trifluoromethoxy)phenyl)-1H-1,2,4-triazol-3-yl)vinyl)phenyl)urea]	50 to 100%	50 to 100%
COCc1ccc(C)cc1N1C(=O)CS/C1=N\C(=O)Nc1ccc(/C=C/c2ncn(-c3ccc(OC(F)(F)F)cc3)n2)cc1 [F53, 1-((Z)-3-(2-(Methoxymethyl)-5-methylphenyl)-4-oxothiazolidin-2-ylidene)-3-(4-((E)-2-(1-(4-(trifluoromethoxy)phenyl)-1H-1,2,4-triazol-3-yl)vinyl)phenyl)urea]	50 to 100%	50 to 100%
COC(=O)c1cc(/C=C/c2ncn(-c3ccc(OC(F)(F)F)cc3)n2)ccc1NC(=O)/N=C1\SCC(=O)N1c1cc(C)ccc1C(C)C [F54, Methyl 2-(3-((Z)-3-(2-isopropyl-5-methylphenyl)-4-oxothiazolidin-2-ylidene)ureido)-5-((E)-2-(1-(4-(trifluoromethoxy)phenyl)-1H-1,2,4-triazol-3-yl)vinyl)benzoate]	50 to 100%	50 to 100%
Cc1ccc(C(C)C)c(N2C(=O)CS/C2=N\C(=O)Nc2ccc(/C=C/c3ncn(-c4ccc(OC(F)(F)F)cc4)n3)cc2F)c1 [F55, 1-(2-Fluoro-4-((E)-2-(1-(4-(trifluoromethoxy)phenyl)-1H-1,2,4-triazol-3-yl)vinyl)phenyl)-3-((Z)-3-(2-isopropyl-5-methylphenyl)-4-oxothiazolidin-2-ylidene)urea]	50 to 100%	50 to 100%
Cc1ccc(C(C)C)c(N2C(=O)CS/C2=N\C(=O)Nc2ccc(/C=C/c3ncn(-c4ccc(OC(F)(F)F)cc4)n3)cc2Cl)c1 [F56, 1-(2-chloro-4-((E)-2-(1-(4-(trifluoromethoxy)phenyl)-1H-1,2,4-triazol-3-yl)vinyl)phenyl)-3-((Z)-3-(2-isopropyl-5-methylphenyl)-4-oxothiazolidin-2-ylidene)urea]	50 to 100%	50 to 100%
Cc1ccc(C(C)C)c(N2C(=O)CS/C2=N\C(=O)Nc2c(F)cc(/C=C/c3ncn(-c4ccc(OC(F)(F)F)cc4)n3)cc2F)c1 [F57, 1-(2,6-difluoro-4-((E)-2-(1-(4-(trifluoromethoxy)phenyl)-1H-1,2,4-triazol-3-yl)vinyl)phenyl)-3-((Z)-3-(2-isopropyl-5-methylphenyl)-4-oxothiazolidin-2-ylidene)urea]	50 to 100%	50 to 100%
COc1cc(/C=C/c2ncn(-c3ccc(OC(F)(F)F)cc3)n2)ccc1NC(=O)/N=C1\SCC(=O)N1c1cc(C)ccc1C(C)C [F58, 1-((Z)-3-(2-isopropyl-5-methylphenyl)-4-oxothiazolidin-2-ylidene)-3-(2-methoxy-4-((E)-2-(1-(4-(trifluoromethoxy)phenyl)-1H-1,2,4-triazol-3-yl)vinyl)phenyl)urea]	50 to 100%	50 to 100%
COCc1ccc(C)cc1N1C(=O)CS/C1=N\C(=O)Nc1ccc(/C=C/c2ncn(-c3ccc(OC(F)(F)F)cc3)n2)cc1F [F59, 1-(2-Fluoro-4-((E)-2-(1-(4-(trifluoromethoxy)phenyl)-1H-1,2,4-triazol-3-yl)vinyl)phenyl)-3-((Z)-3-(2-(methoxymethyl)-5-methylphenyl)-4-oxothiazolidin-2-ylidene)urea]	50 to 100%	50 to 100%
Cc1ccc(C(C)C)c(N2C(=O)CS/C2=N\C(=O)Nc2ccc(/C=C/c3ncn(-c4ccc(OC(F)(F)F)cc4)n3)c(F)c2)c1 [F61, 1-(3-fluoro-4-((E)-2-(1-(4-(trifluoromethoxy)phenyl)-1H-1,2,4-triazol-3-yl)vinyl)phenyl)-3-((Z)-3-(2-isopropyl-5-methylphenyl)-4-oxothiazolidin-2-ylidene)urea]	50 to 100%	50 to 100%
Cc1ccc(C(C)C)c(N2C(=O)CS/C2=N\C(=O)Nc2ccc(/C=C/c3ncn(-c4ccc(OC(F)(F)F)cc4)n3)cc2C(F)(F)F)c1 [F62, 1-((Z)-3-(2-isopropyl-5-methylphenyl)-4-oxothiazolidin-2-ylidene)-3-(4-((E)-2-(1-(4-(trifluoromethoxy)phenyl)-1H-1,2,4-triazol-3-yl)vinyl)-2-(trifluoromethyl)phenyl)urea]	50 to 100%	50 to 100%
CCCc1ccc(C)cc1N1C(=O)CS/C1=N\C(=O)Nc1ccc(/C=C/c2ncn(-c3ccc(OC(F)(F)F)cc3)n2)cc1F [F63, 1-(2-Fluoro-4-((E)-2-(1-(4-(trifluoromethoxy)phenyl)-1H-1,2,4-triazol-3-yl)vinyl)phenyl)-3-((Z)-3-(5-methyl-2-propylphenyl)-4-oxothiazolidin-2-ylidene)urea]	50 to 100%	50 to 100%
